From patent US6576261B1, “Potentiation of inclusion complex formation of cyclodextrin derivatives” (priority 1999, dated 2003)

What was measured:
[1] = Solubilization of choline and sodium salts of FTS and other acidic drugs by cyclodextrins
Experimental: The solid obtained thereby was heated on a boiling water bath.
In this procedure, FTS (10 mg, 28 micromoles) was dissolved with warming in ethanol (20 microliters) and an aqueous solution of sodium hydroxide (30 microliters of 1 M NaOH carbonate free, i.e., 30 micromoles) was added. […] This clear solution then was added to the solution of Pitha methyl derivative (100 mg) in isotonic phosphate buffered saline (1 ml, pH 7.4).
In these investigations, choline salts were prepared by extraction with organic solvents of mixtures of sodium salts of the anion in question and choline chloride. There mixtures were either solid or in aqueous solutions.

[2] = Solubilization of additional guests by two different hosts; format: physicochemical; conditions: for solubility at 1 week: water containing solubilising hosts, aqueous with cosolvent or surfactant or cyclodextrin, thermodynamic from solid
Source text: Techniques were as described in Example 1 and water was used as a solvent. As shown in Table for Example 4, complexes of two hosts increased the solubility of retinoic acid and taxol compared to the solubility obtained with individual hosts.

[3] = physchem
Source text: A slight excess of FTS was equilibrated with water containing one host at 5% concentration or two hosts, each at 5% concentration, by rotation for a week. The suspension was then filtered through a millipore filter and the concentration of FTS in filtrate determined by ultraviolet spectrophotometry. […] The cooperativity index reflects the improvement in solubility obtained with each combination of two hosts over the solubility obtained with each of the individual hosts involved in the two-host system. It is computed by dividing the obtained solubility with two hosts by the sum of the individual solubilities obtained with each component.

[4] = host combination DIMEB - TRIMEB (first line, r7), water
[5] = host combination DIMEB - TRIMEB (printed a second time, r8), water
[6] = host combination TRIMEA - DIMEB, water
[7] = host combination TRIMEA - Pitha Methyl 258, water
[8] = host combination TRIMEA - RAMEB, water
[9] = host combination TRIMEA - TRIMEB, water

In the case of `C[C@@H]1[C@H](O)[C@@H](C)/C=C/C=C/C=C/C=C/C=C/C=C/C=C/[C@H](O[C@@H]2O[C@H](C)[C@@H](O)[C@H](N)[C@@H]2O)C[C@@H]2O[C@](O)(C[C@@H](O)C[C@@H](O)[C@H](O)CC[C@@H](O)C[C@@H](O)CC(=O)O[C@H]1C)C[C@H](O)[C@H]2C(=O)O` [Amphotericin B], the “solubilization of choline salts” value [1] is reported as “easily solubilized”, the Cooperativity [2, 4] is reported as 0.7 and the Solubility [2, 4] is reported as 131 µg/mL. The Cooperativity [2, 5] was 0.9, the Solubility [2, 5] was 158 µg/mL and the Cooperativity [2, 6] was 0.9. The Solubility [2, 6] was 185 µg/mL.

Molecule `CC1=C(/C=C/C(C)=C/C=C/C(C)=C/C(=O)O)C(C)(C)CCC1` [Retinoic Acid] has a Cooperativity [2, 6] of 1.45, a Cooperativity [2, 7] of 1.13 and a Cooperativity [2, 8] of 1.08. For the same molecule, the Cooperativity [2, 9] was 0.7, the solubility at 1 week [2, 6] was 71 µg/mL and the solubility at 1 week [2, 7] was 52 µg/mL. For the same molecule, the solubility at 1 week [2, 8] was 56 µg/mL, the solubility at 1 week [2, 9] was 12 µg/mL and the “single, highly methylated cyclodextrin host outperformed the current standard” value ([3]; 1 week) was 2.5 times.

`CC(=O)O[C@H]1C(=O)[C@@]2(C)[C@H]([C@H](OC(=O)c3ccccc3)[C@]3(O)C[C@H](OC(=O)[C@H](O)[C@@H](NC(=O)c4ccccc4)c4ccccc4)C(C)=C1C3(C)C)[C@]1(OC(C)=O)CO[C@@H]1C[C@@H]2O` [Taxol] showed a Cooperativity [2, 6] of 1.49, a solubility at 1 week [2, 6] of 1000 µg/mL and a Solubility ([3]; 1 week) of 380 µg/mL. The solubility at 1 week ([3]; aqueous with cosolvent or surfactant or cyclodextrin, thermodynamic from solid, Solubility) was 290 µg/mL.

For `CC(C)=CCC/C(C)=C/CC/C(C)=C/CSc1ccccc1C(=O)[O-].C[N+](C)(C)CCO` [choline salt of FTS], the “precipitate formation upon acidification” value ([1]; cyclodextrin-solubilized salts) was “less prone to form precipitate upon acidification than sodium salts”, the pH of solution ([1]; powder of choline salt of FTS with methylated beta-cyclodextrin dissolved in water, paper strip indicator) was 6.5 and the “dissolution of the powder in water” value ([1]; solid powder of choline salt of FTS with methylated beta-cyclodextrin) was “dissolved easily and fully in water”.

With `CC(C)Cc1ccc(C(C)C(=O)O)cc1` (centres unmarked) [ibuprofen] the “solubilization of choline salts” value [1] was “easily solubilized”.

With `COc1ccc2c(c1)c(CC(=O)O)c(C)n2C(=O)c1ccc(Cl)cc1` [indomethacin] the “solubilization of choline salts” value [1] was “easily solubilized”.

For `CN1C(C(=O)Nc2ccccn2)=C(O)c2ccccc2S1(=O)=O` [piroxicam], the “solubilization of choline salts” value [1] was “easily solubilized”.

For `O=C(O)c1ccccc1O` [salicylic acid], the “solubilization of choline salts” value [1] was “easily solubilized”.

For `Nc1ccc(S(=O)(=O)Nc2ncccn2)cc1` [sulfadiazine], the “solubilization of choline salts” value [1] was “easily solubilized”.

With `Cc1ccc(C(=O)Nc2ccc(S(=O)(=O)O)c3cc(S(=O)(=O)O)cc(S(=O)(=O)O)c23)cc1NC(=O)c1cccc(NC(=O)Nc2cccc(C(=O)Nc3cc(C(=O)Nc4ccc(S(=O)(=O)O)c5cc(S(=O)(=O)O)cc(S(=O)(=O)O)c45)ccc3C)c2)c1` [suramin] the “solubilization of choline salts” value [1] was “easily solubilized”.
